Reference: paper PMC4917279 (Journal of Medicinal Chemistry, 2016)

Columns and labels:
Assay in all cases: KINOMEscan
Type in all cases: binding
Settings in all cases: read-out: %Ctrl @ 1000 nM
SGK2 = target: T1, SGK2 (Homo sapiens, UniProt Q9HBY8)
T1 construct: purchased DiscoveRx KINOMEscan

TGFBR1 = target: T2, TGFBR1 (Homo sapiens, UniProt P36897)
T2 construct: purchased DiscoveRx KINOMEscan

MEK3 = target: T3, MEK3 (Homo sapiens, UniProt P46734)
T3 construct: purchased DiscoveRx KINOMEscan

YANK3 = target: T4, YANK3 (Homo sapiens, UniProt Q86UX6)
T4 construct: purchased DiscoveRx KINOMEscan

KIT = target: T5, KIT (Homo sapiens, UniProt P10721)
T5 construct: purchased DiscoveRx KINOMEscan
T5 sequence (P10721 26-976): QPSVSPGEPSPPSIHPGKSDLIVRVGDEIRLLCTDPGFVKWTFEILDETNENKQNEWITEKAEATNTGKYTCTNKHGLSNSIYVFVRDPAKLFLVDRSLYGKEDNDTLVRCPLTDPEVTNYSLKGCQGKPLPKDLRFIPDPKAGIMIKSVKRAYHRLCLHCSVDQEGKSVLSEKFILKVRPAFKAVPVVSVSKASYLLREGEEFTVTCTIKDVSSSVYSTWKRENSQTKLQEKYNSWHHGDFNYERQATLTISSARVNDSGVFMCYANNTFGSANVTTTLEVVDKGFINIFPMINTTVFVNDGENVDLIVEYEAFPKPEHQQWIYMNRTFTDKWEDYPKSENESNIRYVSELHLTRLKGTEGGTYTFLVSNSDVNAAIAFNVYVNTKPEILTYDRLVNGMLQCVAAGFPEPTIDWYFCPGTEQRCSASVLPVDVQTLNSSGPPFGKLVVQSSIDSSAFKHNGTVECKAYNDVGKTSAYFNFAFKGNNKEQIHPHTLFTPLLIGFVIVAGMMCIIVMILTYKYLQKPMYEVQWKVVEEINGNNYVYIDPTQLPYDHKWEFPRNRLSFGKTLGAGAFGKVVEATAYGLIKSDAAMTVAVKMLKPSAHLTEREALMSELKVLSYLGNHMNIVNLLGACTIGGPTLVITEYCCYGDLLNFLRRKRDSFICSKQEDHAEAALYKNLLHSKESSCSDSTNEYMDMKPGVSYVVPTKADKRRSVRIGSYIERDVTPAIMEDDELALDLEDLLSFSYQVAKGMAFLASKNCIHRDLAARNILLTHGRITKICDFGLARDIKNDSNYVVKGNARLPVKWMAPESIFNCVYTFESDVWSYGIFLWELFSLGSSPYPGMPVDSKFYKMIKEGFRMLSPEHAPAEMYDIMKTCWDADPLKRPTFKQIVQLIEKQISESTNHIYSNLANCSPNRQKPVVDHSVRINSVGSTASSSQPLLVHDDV

GAK = target: T6, GAK (Homo sapiens, UniProt O14976)
T6 construct: purchased DiscoveRx KINOMEscan

MAP3K15 = target: T7, MAP3K15 (Homo sapiens, UniProt Q6ZN16)
T7 construct: purchased DiscoveRx KINOMEscan

MAK = target: T8, MAK (Homo sapiens, UniProt P20794)
T8 construct: purchased DiscoveRx KINOMEscan

YANK2 = target: T9, YANK2 (Homo sapiens, UniProt Q9NY57)
T9 construct: purchased DiscoveRx KINOMEscan

MEK1 = target: T10, MEK1 (Homo sapiens, UniProt Q02750)
T10 construct: purchased DiscoveRx KINOMEscan

CDK11 = target: T11, CDK11 (Homo sapiens, UniProt Q9BWU1)
T11 construct: purchased DiscoveRx KINOMEscan

VRK2 = target: T12, VRK2 (Homo sapiens, UniProt Q86Y07)
T12 construct: purchased DiscoveRx KINOMEscan

MET(M1250T) = target: T13, MET(M1250T) (Homo sapiens, UniProt P08581, M1250T)
T13 construct: purchased DiscoveRx KINOMEscan

CDC2L2 = target: T14, CDC2L2 (Homo sapiens, UniProt Q9UQ88)
T14 construct: purchased DiscoveRx KINOMEscan

CAMK2B = target: T15, CAMK2B (Homo sapiens, UniProt Q13554)
T15 construct: purchased DiscoveRx KINOMEscan
T15 sequence (Q13554 whole entry): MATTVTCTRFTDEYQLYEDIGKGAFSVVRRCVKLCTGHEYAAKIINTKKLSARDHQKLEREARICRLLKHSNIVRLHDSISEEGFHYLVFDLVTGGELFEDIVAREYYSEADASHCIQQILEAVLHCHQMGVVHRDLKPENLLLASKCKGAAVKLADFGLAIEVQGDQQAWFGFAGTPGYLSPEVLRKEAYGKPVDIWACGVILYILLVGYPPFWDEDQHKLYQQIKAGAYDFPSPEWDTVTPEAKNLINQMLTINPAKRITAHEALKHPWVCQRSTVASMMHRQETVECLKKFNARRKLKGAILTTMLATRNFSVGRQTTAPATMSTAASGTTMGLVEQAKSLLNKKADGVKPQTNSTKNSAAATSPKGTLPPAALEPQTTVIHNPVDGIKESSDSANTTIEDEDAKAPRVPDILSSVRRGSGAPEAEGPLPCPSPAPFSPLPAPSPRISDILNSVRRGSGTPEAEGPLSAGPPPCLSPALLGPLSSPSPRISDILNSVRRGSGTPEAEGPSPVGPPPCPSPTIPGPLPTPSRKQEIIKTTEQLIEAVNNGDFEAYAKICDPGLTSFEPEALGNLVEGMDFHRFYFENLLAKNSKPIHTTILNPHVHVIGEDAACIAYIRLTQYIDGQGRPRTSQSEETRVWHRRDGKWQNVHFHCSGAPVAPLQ

EGFR(G719C) = target: T16, EGFR(G719C) (Homo sapiens, UniProt P00533, G719C)
T16 construct: purchased DiscoveRx KINOMEscan

TEC = target: T17, TEC (Homo sapiens, UniProt P42680)
T17 construct: purchased DiscoveRx KINOMEscan
T17 sequence (P42680 whole entry): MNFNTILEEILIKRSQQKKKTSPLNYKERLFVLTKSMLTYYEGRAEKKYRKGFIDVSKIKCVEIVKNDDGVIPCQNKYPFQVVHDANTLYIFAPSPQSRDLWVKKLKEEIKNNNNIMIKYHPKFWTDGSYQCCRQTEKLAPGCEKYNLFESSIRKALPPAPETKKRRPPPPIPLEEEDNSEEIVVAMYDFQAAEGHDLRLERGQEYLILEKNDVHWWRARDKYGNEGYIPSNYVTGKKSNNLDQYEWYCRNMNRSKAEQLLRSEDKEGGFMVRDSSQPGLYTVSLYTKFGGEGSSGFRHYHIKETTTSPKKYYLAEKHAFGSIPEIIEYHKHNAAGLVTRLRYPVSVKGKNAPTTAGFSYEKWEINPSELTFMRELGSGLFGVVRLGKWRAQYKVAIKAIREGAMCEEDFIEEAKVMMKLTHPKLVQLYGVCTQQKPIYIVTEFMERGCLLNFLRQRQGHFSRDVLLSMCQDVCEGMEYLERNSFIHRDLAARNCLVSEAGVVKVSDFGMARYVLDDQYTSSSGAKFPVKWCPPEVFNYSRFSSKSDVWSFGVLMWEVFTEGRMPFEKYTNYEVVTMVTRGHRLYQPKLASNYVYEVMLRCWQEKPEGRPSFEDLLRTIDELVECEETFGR

MARK3 = target: T18, MARK3 (Homo sapiens, UniProt P27448)
T18 construct: purchased DiscoveRx KINOMEscan

PRKR = target: T19, PRKR (Homo sapiens, UniProt P19525)
T19 construct: purchased DiscoveRx KINOMEscan
T19 sequence (P19525 whole entry): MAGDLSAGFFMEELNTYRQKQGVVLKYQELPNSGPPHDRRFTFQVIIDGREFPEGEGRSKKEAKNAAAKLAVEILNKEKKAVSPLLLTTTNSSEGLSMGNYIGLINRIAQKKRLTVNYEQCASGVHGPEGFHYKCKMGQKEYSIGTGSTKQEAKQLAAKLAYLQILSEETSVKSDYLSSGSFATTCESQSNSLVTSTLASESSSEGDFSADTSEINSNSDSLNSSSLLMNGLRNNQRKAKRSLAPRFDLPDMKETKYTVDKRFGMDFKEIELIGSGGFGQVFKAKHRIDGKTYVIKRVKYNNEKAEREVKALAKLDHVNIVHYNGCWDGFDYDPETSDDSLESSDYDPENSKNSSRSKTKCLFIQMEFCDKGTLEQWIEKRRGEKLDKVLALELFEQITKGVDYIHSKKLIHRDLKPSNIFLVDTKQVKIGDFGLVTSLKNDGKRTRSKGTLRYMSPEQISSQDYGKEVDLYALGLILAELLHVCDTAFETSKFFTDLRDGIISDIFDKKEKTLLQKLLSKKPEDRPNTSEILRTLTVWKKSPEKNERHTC

PDPK1 = target: T20, PDPK1 (Homo sapiens, UniProt O15530)
T20 construct: purchased DiscoveRx KINOMEscan

NEK2 = target: T21, NEK2 (Homo sapiens, UniProt P51955)
T21 construct: purchased DiscoveRx KINOMEscan

FLT1 = target: T22, FLT1 (Homo sapiens, UniProt P17948)
T22 construct: purchased DiscoveRx KINOMEscan

TLK1 = target: T23, TLK1 (Homo sapiens, UniProt Q9UKI8)
T23 construct: purchased DiscoveRx KINOMEscan

PIK3CA(I800L) = target: T24, PIK3CA(I800L) (Homo sapiens, UniProt P42336, I800L)
T24 construct: purchased DiscoveRx KINOMEscan

[1] = target: T25, JAK1(JH2domain-pseudokinase) (Homo sapiens, UniProt P23458)
T25 construct: JAK1(JH2domain-pseudokinase); purchased DiscoveRx KINOMEscan

FLT3(R834Q) = target: T26, FLT3(R834Q) (Homo sapiens, UniProt P36888, R834Q)
T26 construct: purchased DiscoveRx KINOMEscan

ALK(C1156Y) = target: T27, ALK(C1156Y) (Homo sapiens, UniProt Q9UM73, C1156Y)
T27 construct: purchased DiscoveRx KINOMEscan
T27 sequence (Q9UM73 19-1620 C1156Y): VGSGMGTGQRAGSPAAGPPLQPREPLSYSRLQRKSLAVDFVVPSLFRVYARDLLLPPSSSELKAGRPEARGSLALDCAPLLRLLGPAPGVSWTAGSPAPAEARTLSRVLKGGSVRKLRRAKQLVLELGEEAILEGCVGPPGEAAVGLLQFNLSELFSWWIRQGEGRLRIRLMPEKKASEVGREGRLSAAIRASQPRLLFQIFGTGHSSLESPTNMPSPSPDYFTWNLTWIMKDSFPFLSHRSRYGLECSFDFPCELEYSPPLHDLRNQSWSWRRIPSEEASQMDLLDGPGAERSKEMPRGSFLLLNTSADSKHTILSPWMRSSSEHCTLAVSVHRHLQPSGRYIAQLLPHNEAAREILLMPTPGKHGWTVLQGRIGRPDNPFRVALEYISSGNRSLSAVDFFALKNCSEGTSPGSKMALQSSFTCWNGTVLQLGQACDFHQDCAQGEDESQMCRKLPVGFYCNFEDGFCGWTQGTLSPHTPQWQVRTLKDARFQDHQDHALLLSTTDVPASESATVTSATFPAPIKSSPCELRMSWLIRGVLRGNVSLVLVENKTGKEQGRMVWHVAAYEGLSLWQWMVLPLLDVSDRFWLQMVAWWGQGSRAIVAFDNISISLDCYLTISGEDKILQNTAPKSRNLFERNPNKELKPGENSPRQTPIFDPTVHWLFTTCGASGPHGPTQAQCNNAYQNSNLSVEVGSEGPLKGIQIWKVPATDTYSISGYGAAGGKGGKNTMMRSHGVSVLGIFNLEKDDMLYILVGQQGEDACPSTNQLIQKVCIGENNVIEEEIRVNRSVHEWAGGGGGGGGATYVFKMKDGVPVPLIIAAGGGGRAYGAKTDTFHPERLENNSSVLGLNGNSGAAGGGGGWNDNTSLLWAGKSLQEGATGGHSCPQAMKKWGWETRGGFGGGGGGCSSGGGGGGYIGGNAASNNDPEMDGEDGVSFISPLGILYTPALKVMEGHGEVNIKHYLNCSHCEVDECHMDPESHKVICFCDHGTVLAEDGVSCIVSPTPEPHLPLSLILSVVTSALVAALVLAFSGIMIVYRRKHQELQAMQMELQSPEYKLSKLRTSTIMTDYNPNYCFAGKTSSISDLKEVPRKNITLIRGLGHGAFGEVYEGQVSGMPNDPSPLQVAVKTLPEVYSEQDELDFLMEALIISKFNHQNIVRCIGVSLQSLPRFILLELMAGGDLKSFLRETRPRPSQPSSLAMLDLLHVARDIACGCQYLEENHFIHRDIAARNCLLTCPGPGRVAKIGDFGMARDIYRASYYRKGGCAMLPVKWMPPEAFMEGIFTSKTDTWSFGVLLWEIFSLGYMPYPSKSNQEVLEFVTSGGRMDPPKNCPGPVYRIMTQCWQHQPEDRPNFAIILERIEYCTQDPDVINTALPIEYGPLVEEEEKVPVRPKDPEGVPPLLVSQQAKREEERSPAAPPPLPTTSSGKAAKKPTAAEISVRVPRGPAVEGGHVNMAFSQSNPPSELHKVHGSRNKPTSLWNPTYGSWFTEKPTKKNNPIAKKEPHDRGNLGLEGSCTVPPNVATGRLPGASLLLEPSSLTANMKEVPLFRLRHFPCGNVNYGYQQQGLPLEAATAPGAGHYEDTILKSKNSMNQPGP

PDGFRA = target: T28, PDGFRA (Homo sapiens, UniProt P16234)
T28 construct: purchased DiscoveRx KINOMEscan

ERK2 = target: T29, ERK2 (Homo sapiens, UniProt P28482)
T29 construct: purchased DiscoveRx KINOMEscan

EPHA6 = target: T30, EPHA6 (Homo sapiens, UniProt Q9UF33)
T30 construct: purchased DiscoveRx KINOMEscan

SRPK1 = target: T31, SRPK1 (Homo sapiens, UniProt Q96SB4)
T31 construct: purchased DiscoveRx KINOMEscan

MKK7 = target: T32, MKK7 (Homo sapiens, UniProt O14733)
T32 construct: purchased DiscoveRx KINOMEscan

VEGFR2 = target: T33, VEGFR2 (Homo sapiens, UniProt P35968)
T33 construct: purchased DiscoveRx KINOMEscan

PIM1 = target: T34, PIM1 (Homo sapiens, UniProt P11309)
T34 construct: purchased DiscoveRx KINOMEscan

EPHB2 = target: T35, EPHB2 (Homo sapiens, UniProt P29323)
T35 construct: purchased DiscoveRx KINOMEscan

CDK7 = target: T36, CDK7 (Homo sapiens, UniProt P50613)
T36 construct: purchased DiscoveRx KINOMEscan

PHKG2 = target: T37, PHKG2 (Homo sapiens, UniProt P15735)
T37 construct: purchased DiscoveRx KINOMEscan
T37 sequence (P15735 whole entry): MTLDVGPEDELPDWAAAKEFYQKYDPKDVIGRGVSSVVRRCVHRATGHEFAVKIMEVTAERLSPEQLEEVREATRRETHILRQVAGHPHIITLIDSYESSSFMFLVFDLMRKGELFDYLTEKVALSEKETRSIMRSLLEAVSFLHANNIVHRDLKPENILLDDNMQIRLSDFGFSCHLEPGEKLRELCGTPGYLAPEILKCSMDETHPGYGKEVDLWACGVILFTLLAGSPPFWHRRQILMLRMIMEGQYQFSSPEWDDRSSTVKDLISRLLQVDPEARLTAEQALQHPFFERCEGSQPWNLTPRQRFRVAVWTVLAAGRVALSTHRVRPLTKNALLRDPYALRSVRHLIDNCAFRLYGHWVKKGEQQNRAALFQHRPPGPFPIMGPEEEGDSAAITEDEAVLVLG

KIT(A829P) = target: T38, KIT(A829P) (Homo sapiens, UniProt P10721, A829P)
T38 construct: purchased DiscoveRx KINOMEscan
T38 sequence (P10721 26-976 A829P): as the sequence (P10721 26-976) above, with A804P counted along it

ANKK1 = target: T39, ANKK1 (Homo sapiens, UniProt Q8NFD2)
T39 construct: purchased DiscoveRx KINOMEscan

BRAF(V600E) = target: T40, BRAF(V600E) (Homo sapiens, UniProt P15056, V600E)
T40 construct: purchased DiscoveRx KINOMEscan

MINK = target: T41, MINK (Homo sapiens, UniProt Q8N4C8)
T41 construct: purchased DiscoveRx KINOMEscan

[2] = target: T42, ABL1(F317I)-phosphorylated (Homo sapiens, UniProt P00519, F317I)
T42 construct: purchased DiscoveRx (KINOMEscan service)

CHEK2 = target: T43, CHEK2 (Homo sapiens, UniProt O96017)
T43 construct: purchased DiscoveRx KINOMEscan

## CCN(C(=O)CO)[C@H]1CN(/C(=N\C#N)Nc2cccc(OC(F)F)c2)N=C1c1ccc(Cl)c(Cl)c1 [(S)-4]
SGK2
  remaining binding at 1 µM: 100%
TGFBR1
  remaining binding at 1 µM: 100%
MEK3
  remaining binding at 1 µM: 100%
YANK3
  remaining binding at 1 µM: 100%
KIT
  remaining binding at 1 µM: 100%
GAK
  remaining binding at 1 µM: 100%
MAP3K15
  remaining binding at 1 µM: 69%
MAK
  remaining binding at 1 µM: 74%
YANK2
  remaining binding at 1 µM: 98%
MEK1
  remaining binding at 1 µM: 98%
CDK11
  remaining binding at 1 µM: 85%
VRK2
  remaining binding at 1 µM: 93%
MET(M1250T)
  remaining binding at 1 µM: 86%
CDC2L2
  remaining binding at 1 µM: 92%
CAMK2B
  remaining binding at 1 µM: 100%
EGFR(G719C)
  remaining binding at 1 µM: 86%
TEC
  remaining binding at 1 µM: 99%
MARK3
  remaining binding at 1 µM: 69%
PRKR
  remaining binding at 1 µM: 84%
PDPK1
  remaining binding at 1 µM: 59%
NEK2
  remaining binding at 1 µM: 99%
FLT1
  remaining binding at 1 µM: 95%
TLK1
  remaining binding at 1 µM: 100%
PIK3CA(I800L)
  remaining binding at 1 µM: 90%
[1]
  remaining binding at 1 µM: 100%
FLT3(R834Q)
  remaining binding at 1 µM: 100%
ALK(C1156Y)
  remaining binding at 1 µM: 100%
PDGFRA
  remaining binding at 1 µM: 100%
ERK2
  remaining binding at 1 µM: 98%
EPHA6
  remaining binding at 1 µM: 99%
SRPK1
  remaining binding at 1 µM: 57%
MKK7
  remaining binding at 1 µM: 99%
VEGFR2
  remaining binding at 1 µM: 100%
PIM1
  remaining binding at 1 µM: 82%
EPHB2
  remaining binding at 1 µM: 74%
CDK7
  remaining binding at 1 µM: 98%
PHKG2
  remaining binding at 1 µM: 99%
KIT(A829P)
  remaining binding at 1 µM: 98%
ANKK1
  remaining binding at 1 µM: 92%
BRAF(V600E)
  remaining binding at 1 µM: 100%
MINK
  remaining binding at 1 µM: 100%
[2]
  remaining binding at 1 µM: 98%
CHEK2
  remaining binding at 1 µM: 99%
